For one experiment, the target named is BRD4 (Homo sapiens, UniProt O60885). The experiment in a line: AlphaScreen assay, Bromodomain 4 inhibition. It is filed as binding. The method, then:
AlphaScreen assays were performed as described by Philpott et al Mol Biosyst. […] YSGRGK(Ac)GGK(Ac)GLGK(Ac)GGAK(Ac)RHRK (Biotin) peptide was used in the assays. Buffer conditions used in all experiments were 25 mM HEPES, pH 7.4, 100 mM NaCl, 0.1% BSA, supplemented with 0.05% CHAPS.

The next experiment has as its system collagen1A1. The experiment in a line: Anti-fibrotic effects: collagen1A1 production by LX2 cells treated with TGFbeta. The note with it: 500 nM. Type of experiment: cell-based. The text has this: (§1) Methods of culturing LX2 cells and measurements of Collagen1A1 and alphaActin1 mRNA contents are provided in Ding et al, Proc Natl Acad Sci USA 2015, 112:15713-15718

Another experiment has as its system alphaActin1. The experiment in a line: Anti-fibrotic effects: alphaActin1 production by LX2 cells treated with TGFbeta. Type of experiment: cell-based. The note with it: 500 nM.
Source text: as §1

Experiment [1] deals with Interleukin 1beta (IL-1beta), Interleukin 6 (IL6) and TNF-alpha. The experiment can be described thus: LPS-stimulated cytokine production in whole human blood. Type of experiment: cell-based. As to conditions: 10 ng/ml LPS; for inhibition at 0.6 µM: 600 nM, 24 h, read-out: Inhibition of inflammatory cytokine production. The method, then:
BET inhibitors were added (from 10 mM DMSO solutions) to whole human blood (anti-coagulated with heparin) during incubation for 24 h at 37° C. in the presence of 10 ng/ml Lipopolysaccharide (LPS). Final DMSO concentration was below 0.01%. Cytokines production with 0.01% DMSO alone in the absence of LPS were below detection level.

The next experiment has as its system HL-60. The experiment in a line: Inhibition of proliferation (Alamar Blue cell viability), HL-60. Type of experiment: cell-based. As to conditions: Homo sapiens; AML, HL-60, 72 h; read-out: Inhibition of cell growth, IC50. The method, then: (§2) A semi-log dilution was performed in 100% DMSO. Cells were cultured in DMEM containing 10% FCS and Penicillin/Streptomycin. For the assays, cells were seeded in 150 μL medium on a 96-well cell culture plate and incubated at 37° C. overnight before the compound was added. […] A day after cell seeding, 10 μL of prediluted compound was added to the cells (1:16 dilution). Treatment of cells with 0.1% DMSO and Staurosporine (1.0E-05 M) served as High control (100% viability) and Low control (0% viability), respectively
(§3) A day after cell seeding, the test compound was added to the medium to reach the final concentration and incubated for 72 h at 37° C. at 5% CO2 in air dependent on the medium. Subsequently 15 μL Alamar Blue reagent was added and fluorescence at 590 nm was measured after 3-5 h incubation at 37° C., 5% CO2 using a fluorometer.
(§4) Raw data were converted into percent cell viability relative to the high control (0.1% DMSO) and low control (1E-05M Staurosporine), which were set to 100% and 0%, respectively.
(In general: Resazurin is reduced to fluorescent resorufin, in cell work by metabolically active cells.)

A further experiment deals with KG1. The experiment in a line: Inhibition of proliferation (Alamar Blue cell viability), KG1. Type of experiment: cell-based. The note with it: Homo sapiens, KG-1; AML, KG1, 72 h; read-out: Inhibition of cell growth, IC50. The procedure:
as §2, §3, §4

The subject of another experiment is KMS-12-BM. The experiment can be described thus: Inhibition of proliferation (Alamar Blue cell viability), KMS-12-BM. Type of experiment: cell-based. The note with it: Homo sapiens, Multiple myeloma, 72 h, read-out: Inhibition of cell growth, IC50. The procedure:
as §2, §3, §4

The test system of the next experiment is LP-1. The experiment can be described thus: Inhibition of proliferation (Alamar Blue cell viability), LP-1. Type of experiment: cell-based. The note with it: Homo sapiens; Multiple myeloma, LP-1, 72 h; read-out: Inhibition of cell growth, IC50. The procedure: as §2, §3, §4
In the next experiment the test system is OPM-2. The experiment can be described thus: Inhibition of proliferation (Alamar Blue cell viability), OPM-2. Type of experiment: cell-based. As to conditions: Homo sapiens; Multiple myeloma, OPM-2, 72 h; read-out: Inhibition of cell growth, IC50. The procedure:
as §2, §3, §4

The next experiment deals with CCL2. The experiment in a line: Production of the chemokine CCL2 by cultured human astrocytes (CCL2 mRNA). The note with it: 250 nM, 24 h. It is filed as cell-based. The method, then: CCL2 mRNA content of control astrocytes, astrocytes incubated with 10 ug/ml Tumor Necrosis Factor alpha (TNFalpha) and 10 ug/ml Interferon alpha (IFNalpha) (T/I), astrocytes treated with 250 nM of “Compound 38” (referred to as “C4” in FIG. 2) and astrocytes which are pretreated with “Compound 38” (C4) for 1 hour before stimulation with T/I. Incubation period 24 h. Details on astrocyte culture and quantification of CCL2 mRNA are provided in Mizee et al. Acta Neuropathol (2014) 128:691-703. […] Co-addition of 250 nM of “Compound 38” decreased CCL2 production by 80% both in the absence and presence of TNFalpha/Interferon as shown in FIG. 2.

[2] abbreviates: AlphaScreen, acetylated histone peptide, read-out: Potency as inhibitor of BRD4, IC-50.

Read-outs that look alike come from different tables or passages of the source. A value given as a limit tells only on which side of the number the result lay.

`Cc1sc2c(c1C)C(c1ccc(Cl)cc1)=NN(CC(=O)O)c1nnc(C)n1-2.Cl` [Compound 42, 2-(4-(4-chlorophenyl)-2,3,9-trimethyl-6H-thieno[2,3-e][1,2,4]triazolo[3,4-c][1,2,4]triazepin-6-yl)acetic acid hydrochloride]: at BRD4 (setting [2]), the IC50 came out at 290 nM. The “Reduction of collagen1A1 production” value in the experiment with collagen1A1 is reported as “less inhibition”. Also, the “Reduction of alphaActin1 production” value in the experiment with alphaActin1 was “less inhibition”.
In general, inhibition refers to the change of the read-out against control, counted positive when it falls. As for `CCOC(=O)CN1N=C(c2ccc(Cl)cc2)c2c(sc(C)c2C)-n2c(C)nnc21` [Compound 41, Ethyl 2-(4-(4-chlorophenyl)-2,3,9-trimethyl-6H-thieno[2,3-e][1,2,4]triazolo[3,4-c][1,2,4]triazepin-6-yl)acetate], the IC50 was 11 nM on BRD4 (setting [2]); 6 to 60 nM in [1] (24 h at 37° C., read-out: Inhibition of production of IL-1beta, IL6 and TNF-alpha, IC50s). The inhibition at 0.6 µM in experiment [1] is above 80%. The “Reduction of collagen1A1 production” value with collagen1A1 is recorded as “reduced to an equal extent”. Moreover, the “Reduction of alphaActin1 production” value in the experiment on alphaActin1 is “reduced to an equal extent”.
`Cc1sc2c(c1C)C(c1ccc(Cl)cc1)=NN(C)c1nnc(C)n1-2` [Compound 38, 4-(4-chlorophenyl)-2,3,6,9-tetramethyl-6H-thieno[2,3-e][1,2,4]triazolo[3,4-c][1,2,4]triazepine]: the IC50 stood at 150 nM against BRD4; 810 nM in the experiment with HL-60; 810 nM in the experiment on KG1; 270 nM in the experiment on KMS-12-BM; 360 nM in the experiment with LP-1; 260 nM in the experiment on OPM-2. For the same compound, the “Decrease of CCL2 production” value with CCL2 (absence of TNFalpha/Interferon) and in the experiment with CCL2 (presence of TNFalpha/Interferon) was 80% in each case.
For the compound `Cc1sc2c(c1C)C(c1ccc(Cl)cc1)=NN(CC(=O)OC(C)(C)C)c1nnc(C)n1-2` [Compound 43, tert-butyl 2-(4-(4-chlorophenyl)-2,3,9-trimethyl-6H-thieno[2,3-e][1,2,4]triazolo[3,4-c][1,2,4]triazepin-6-yl)acetate], the IC50 on BRD4 (setting [2]) was 100 nM. In addition, the “Reduction of collagen1A1 production” value in the experiment on collagen1A1 is on record as “less inhibition”. For the same compound, in the experiment on alphaActin1, the “Reduction of alphaActin1 production” value is recorded as “less inhibition”.
Take `Cc1sc2c(c1C)C(c1ccc(Cl)cc1)=N[C@@H](CC(=O)OC(C)(C)C)c1nnc(C)n1-2` [(+)JQ1, reference compound]: the inhibition at 0.6 µM in [1] was around 30%. The “Reduction of collagen1A1 production” value with collagen1A1 is on record as “reduced to an equal extent”. Moreover, in the experiment on alphaActin1, the “Reduction of alphaActin1 production” value is reported as “reduced to an equal extent”.

The record behind these values is patent US11708374B2, “Preparation of condensed triazepine derivatives and their use as BET inhibitors” (DYBLY AG, priority 2018, dated 2023).
